Data from patent US20250092065A1, “2-(INDAZOL-5-YL)-6-(PIPERIDIN-4-YL)-1,7-NAPHTHYRIDINE DERIVATIVES AND RELATED COMPOUNDS AS MODULATORS FOR SPLICING NUCLEIC ACIDS AND FOR THE TREATMENT OF PROLIFERATIVE DISEASES” (REMIX THERAPEUTICS INC., priority 2022, published 2025).
pIC50: −log10 of the molar value. Read-outs that look alike come from different tables or passages of the source.

Legend:
Type in all cases: cell-based, human
HTT mRNA = experiment: RT-qPCR splicing assay, HTT mRNA canonical (CJ) and alternative (AJ) junction; settings: Homo sapiens; for AC50: HTT alternative junction mRNA, read-out: HTT AJ (increase in AJ mRNA, AC50)
Summary of the method: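 Canonical and alternative-exon junction isoforms were quantified by RT-qPCR in cell lysates, with ΔCt against a housekeeper (GAPDH/GUSB/PPIA), then ΔΔCt vs DMSO, converted to 2^(−ΔΔCt) and percent response. K562 or A673 cells were exposed for 24 h to 11 concentrations (3-fold, top final 10 uM).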

MYB = experiment: HiBiT protein abundance assay, MYB (K562 HiBiT knock-in); settings: HiBiT knock-in K562 cells, 24 hours, top dose 10 μM
Summary of the method: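 K562 HiBiT knock-in, 24 h, 37 °C, top 10 μM final, 3-fold ×10, DMSO ≤0.25%. Lytic HiBiT luminescence; PC = parental K562, NC = DMSO; 4PL IC50.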

Target C = experiment: HiBiT protein abundance assay, Target C (K562 HiBiT knock-in); settings: HiBiT knock-in K562 cells, 24 hours, top dose 10 μM
Summary of the method: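 K562 HiBiT knock-in cells (10000/well) were treated 24 h at 37° C with a 10-point 3-fold dilution series (top 10 μM final, ≤0.25% DMSO). HiBiT luminescence was read after lytic LgBiT detection. Percent response used unmodified K562 and DMSO-treated knock-in controls, and IC50 came from a four-parameter fit at 50% of untreated.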

[1] = HTT canonical junction mRNA, RT-qPCR, read-out: HTT CJ (decrease in CJ mRNA levels, IC50)
[2] = canonical junction qPCR panel, Table 4, read-out: HTT IC50 (decrease in CJ mRNA levels)

Compound	pIC50 (HTT mRNA; [1])	pIC50 (HTT mRNA; [2])	pIC50 (MYB)	pIC50 (Target C)	AC50 (HTT mRNA; RT-qPCR) [µM]
Cc1c(O)c(-c2nc(C(=O)NC3CCC3)c3cc(N4C[C@@H](C)N[C@@H](C)C4)ccc3n2)cc2cn(C)nc12 [Compound 540]	5.00 to 6.00	5.00 to 6.00	> 7.00	6.00 to 7.00	0.1 to 1
Cc1c(O)c(-c2nc(-c3nn[nH]n3)c3cc(N4CCNCC4)ccc3n2)cc2cn(C)nc12 [Compound 541, 2,7-dimethyl-5-[6-(piperazin-1-yl)-4-(2H-1,2,3,4-tetrazol-5-yl)quinazolin-2-yl]indazol-6-ol]	5.00 to 6.00	5.00 to 6.00	< 5.00	< 5.00	1 to 10
C[C@@H]1CN(c2ccc3nc(-c4cc5cn(C)nc5c(F)c4O)nc(C4CC4)c3c2)C[C@H](C)N1 [Compound 542, 5-{4-cyclopropyl-6-[(3R,5S)-3,5-dimethylpiperazin-1-yl]quinazolin-2-yl}-7-fluoro-2-methylindazol-6-ol]	5.00 to 6.00	5.00 to 6.00	> 7.00	6.00 to 7.00	1 to 10
C[C@@H]1CN(c2ccc3nc(-c4cc5cn(C)nc5c(F)c4O)nc(C(N)=O)c3c2)C[C@H](C)N1 [Compound 712, 6-[(3R,5S)-3,5-dimethylpiperazin-1-yl]-2-(7-fluoro-6-hydroxy-2-methylindazol-5-yl) quinazoline-4-carboxamide]	5.00 to 6.00	5.00 to 6.00	> 7.00	5.00 to 6.00	1 to 10
CC(=O)c1nc(-c2cc3cn(C)nc3c(F)c2O)nc2ccc(N3C[C@@H](C)N[C@@H](C)C3)cc12 [Compound 717, 1-{6-[(3R,5S)-3,5-dimethylpiperazin-1-yl]-2-(7-fluoro-6-hydroxy-2-methylindazol-5-yl)quinazolin-4-yl}ethanone]	6.00 to 7.00	6.00 to 7.00	> 7.00	6.00 to 7.00	0.1 to 1
CNC(=O)c1nc(-c2cc3cn(C)nc3c(F)c2O)nc2ccc(N3CCNC4(CC4)C3)cc12 [Compound 728, 6-{4,7-diazaspiro[2.5]octan-7-yl}-2-(7-fluoro-6-hydroxy-2-methylindazol-5-yl)-N-methylquinazoline-4-carboxamide]	6.00 to 7.00	6.00 to 7.00	> 7.00	6.00 to 7.00	0.1 to 1
C[C@@H]1CN(c2ccc3nc(-c4cc5cn(C)nc5c(F)c4O)nc(-c4nccs4)c3c2)C[C@H](C)N1 [Compound 732, 5-{6-[(3R,5S)-3,5-dimethylpiperazin-1-yl]-4-(1,3-thiazol-2-yl)quinazolin-2-yl}-7-fluoro-2-methylindazol-6-ol]	< 5.00	< 5.00	5.00 to 6.00	5.00 to 6.00	> 10
C[C@@H]1CN(c2ccc3nc(-c4cc5cn(C)nc5c(F)c4O)nc(C(=O)NCCO)c3c2)C[C@H](C)N1 [Compound 737, 6-[(3R,5S)-3,5-dimethylpiperazin-1-yl]-2-(7-fluoro-6-hydroxy-2-methylindazol-5-yl)-N-(2-hydroxyethyl)quinazoline-4-carboxamide]	5.00 to 6.00	5.00 to 6.00	6.00 to 7.00	5.00 to 6.00	1 to 10
CNC(=O)c1nc(-c2cc3cn(C)nc3cc2O)nc2ccc(N3CCC(N(C)C)CC3)cc12 [Compound 742, 6-[4-(dimethylamino)piperidin-1-yl]-2-(6-hydroxy-2-methylindazol-5-yl)-N-methylquinazoline-4-carboxamide]	6.00 to 7.00	6.00 to 7.00	6.00 to 7.00	< 5.00	> 10
C[C@@H]1CN(c2ccc3nc(-c4cc5cn(C)nc5c(F)c4O)ncc3c2)C[C@H](C)N1 [Compound 743, 5-{6-[(3R,5S)-3,5-dimethylpiperazin-1-yl]quinazolin-2-yl}-7-fluoro-2-methylindazol-6-ol]	< 5.00	< 5.00	5.00 to 6.00	5.00 to 6.00	1 to 10
C[C@@H]1CN(c2ccc3nc(-c4cc5cn(C)nc5c(F)c4O)ncc3c2)C[C@@H](C)N1 [Compound 745, 5-{6-[(3R,5R)-3,5-dimethylpiperazin-1-yl]quinazolin-2-yl}-7-fluoro-2-methylindazol-6-ol]	6.00 to 7.00	6.00 to 7.00	> 7.00	6.00 to 7.00	0.1 to 1
CN[C@@H]1CCN(c2cc3c(Cl)cc(-c4cc5cn(C)nc5c(C)c4O)nc3cc2C)C1 [Compound 748, 5-{4-chloro-7-methyl-6-[(3R)-3-(methylamino)pyrrolidin-1-yl]quinolin-2-yl}-2,7-dimethylindazol-6-ol]	< 5.00	< 5.00	6.00 to 7.00	< 5.00	> 10

Continued, in another order:

pIC50 (HTT mRNA; [1])	pIC50 (HTT mRNA; [2])	pIC50 (MYB)	pIC50 (Target C)	Compound	AC50 (HTT mRNA; RT-qPCR) [µM]
> 7.00	> 7.00	> 7.00	> 7.00	Cc1c(O)c(-c2nc(C(=O)NC(C)C)c3cc(N4C[C@@H](C)N[C@@H](C)C4)ccc3n2)cc2cn(C)nc12 [Compound 539, 6-[(3R,5S)-3,5-dimethylpiperazin-1-yl]-2-(6-hydroxy-2,7-dimethylindazol-5-yl)-N-isopropylquinazoline-4-carboxamide]	< 0.1
> 7.00	> 7.00	> 7.00	6.00 to 7.00	CN[C@@H]1CCN(c2ccc3nc(-c4cc5cn(C)nc5c(F)c4O)nc(C4CC4)c3c2)C1 [Compound 543, 5-{4-cyclopropyl-6-[(3R)-3-(methylamino)pyrrolidin-1-yl]quinazolin-2-yl}-7-fluoro-2-methylindazol-6-ol]	< 0.1
6.00 to 7.00	6.00 to 7.00	6.00 to 7.00	6.00 to 7.00	Cc1cn2cc(-c3ccc4cc(N5C[C@@H](C)N[C@@H](C)C5)cc(F)c4n3)cc(F)c2n1 [Compound 544, 6-[(3R,5S)-3,5-dimethylpiperazin-1-yl]-8-fluoro-2-{8-fluoro-2-methylimidazo[1,2-a]pyridin-6-yl}quinoline]	0.1 to 1
6.00 to 7.00	6.00 to 7.00	> 7.00	6.00 to 7.00	CNC(=O)c1nc(-c2cc3cn(C)nc3c(C)c2O)nc2ccc(N3C[C@H](C)N[C@@H](C)C3)cc12 [Compound 652, 6-[(3S,5S)-3,5-dimethylpiperazin-1-yl]-2-(6-hydroxy-2,7-dimethylindazol-5-yl)-N-methylquinazoline-4-carboxamide]	0.1 to 1
6.00 to 7.00	6.00 to 7.00	> 7.00	6.00 to 7.00	Cc1c(O)c(-c2ncc3cc(N4C[C@H](C)N[C@@H](C)C4)ccc3n2)cc2cn(C)nc12 [Compound 660, 5-{6-[(3S,5S)-3,5-dimethylpiperazin-1-yl]quinazolin-2-yl}-2,7-dimethylindazol-6-ol]	0.1 to 1
6.00 to 7.00	6.00 to 7.00	> 7.00	6.00 to 7.00	CNC(=O)c1nc(-c2cc3cn(C)nc3c(C)c2O)nc2ccc(N3CCC(N4CCC4)CC3)cc12 [Compound 706]	1 to 10
6.00 to 7.00	6.00 to 7.00	> 7.00	6.00 to 7.00	C[C@@H]1CN(c2ccc3nc(-c4cc5cn(C)nc5c(F)c4O)nc(C#N)c3c2)C[C@H](C)N1 [Compound 707, 6-[(3R,5S)-3,5-dimethylpiperazin-1-yl]-2-(7-fluoro-6-hydroxy-2-methylindazol-5-yl) quinazoline-4-carbonitrile]	0.1 to 1
> 7.00	> 7.00	> 7.00	6.00 to 7.00	CNC(=O)c1nc(-c2cc3cn(C)nc3c(F)c2O)nc2ccc(N3CCC(N4CCC4)CC3)cc12 [Compound 722, 6-[4-(azetidin-1-yl)piperidin-1-yl]-2-(7-fluoro-6-hydroxy-2-methylindazol-5-yl)-N-methylquinazoline-4-carboxamide]	0.1 to 1
> 7.00	> 7.00	> 7.00	> 7.00	Cc1cc(N2C[C@@H](C)N[C@@H](C)C2)cc2c(Cl)cc(-c3cc4cn(C)nc4c(F)c3O)nc12 [Compound 723, 5-{4-chloro-6-[(3R,5S)-3,5-dimethylpiperazin-1-yl]-8-methylquinolin-2-yl}-7-fluoro-2-methylindazol-6-ol]	0.1 to 1
> 7.00	> 7.00	> 7.00	> 7.00	CNC(=O)c1nc(-c2cc3cn(C)nc3c(F)c2O)nc2ccc(N3CC[C@@H](NC)C3)cc12 [Compound 729, 2-(7-fluoro-6-hydroxy-2-methylindazol-5-yl)-N-methyl-6-[(3R)-3-(methylamino)pyrrolidin-1-yl]quinazoline-4-carboxamide]	< 0.1
> 7.00	> 7.00	> 7.00	> 7.00	C[C@H]1CN(c2ccc3nc(-c4cc5cn(C)nc5c(F)c4O)ncc3c2)C[C@H](C)N1 [Compound 744, 5-{6-[(3S,5S)-3,5-dimethylpiperazin-1-yl]quinazolin-2-yl}-7-fluoro-2-methylindazol-6-ol]	< 0.1
